Test results: patent US20100298141A1, “SUBSTITUTED PYRIDINE N-OXIDE HERBICIDES” (E. I. DU PONT DE NEMOURS AND COMPANY, priority 2007, published 2010)

How the values were obtained:
[1] = tested on: velvetleaf; experiment: Test A pre-/postemergence greenhouse test; type: in vivo, Abutilon theophrasti; details: for Plant response rating, Velvetleaf: 0 to 100 scale where 0 is no effect and 100 is complete control; for Velvetleaf plant response rating: 0 to 100 scale
How it was run: (§1)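 Sowing in loam/sand; same-day pre (directed soil spray) and post (foliar, 1–2 leaf, 2–10 cm) treatment with surfactant-containing non-phytotoxic solvent formulation; ~10 days in greenhouse; eye-scored injury against untreated plants.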

[2] = tested on: lambsquarters; experiment: Test C pre-/postemergence test; type: in vivo, Chenopodium album; details: Postemergence; for Plant response rating, Lambsquarters: scale 0 to 100, 0 no effect, 100 complete control
Source text: (§2) Seeds of plant species selected from blackgrass (Alopecurus myosuroides), downy brome (Bromus tectorum), green foxtail (Setaria viridis), Italian ryegrass (Lolium multiflorum), wheat (Triticum aestivum), wild oat (Avena fatua), catchweed bedstraw (Galium aparine), Russian thistle (Salsola kali), […] (Cynodon dactylon), Surinam grass (Brachiaria decumbens), cocklebur (Xanthium strumarium), corn (Zea mays), crabgrass (Digitaria sanguinalis), woolly cupgrass (Eriochloa villosa), giant foxtail (Setaria faberii), Goosegrass (Eleusin indica), johnsongrass (Sorghum halepense), kochia (Kochia scoparia), lambsquarters (Chenopodium album), morningglory (Ipomoea coccinea), eastern black nightshade (Solanum ptycanthum), yellow nutsedge (Cyperus esculentus), pigweed (Amaranthus retroflexus), common ragweed (Ambrosia elation), soybean (Glycine max), common (oilseed) sunflower (Helianthus annuus), and velvetleaf (Abutilon theophrasti) were planted and treated preemergence with test chemicals formulated in a non-phytotoxic solvent mixture which included a surfactant. At the same time, plants selected from these crop and weed species and also winter barley (Hordeum vulgare), canarygrass (Phalaris minor), and chickweed (Stellaria media) were treated with postemergence applications of some of the test chemicals formulated in the same manner. Plants ranged in height from 2 to 18 cm (1- to 4-leaf stage) for postemergence treatments. […] At time of treatment, test pots were flooded to 3 cm above the soil surface, treated by application of test compounds directly to the paddy water, and then maintained at that water depth for the duration of the test. […] A dash (-) response means no test result.

[3] = tested on: crabgrass; experiment: Test A pre-/postemergence greenhouse test; type: in vivo, Digitaria sanguinalis; details: for Plant response rating, Crabgrass, Large: 0 to 100 scale where 0 is no effect and 100 is complete control; for Crabgrass, Large plant response rating: 0 to 100 scale
How it was run: as §1

[4] = tested on: green foxtail; experiment: Test C pre-/postemergence test; type: in vivo, Setaria viridis
Source text: as §2

[5] = tested on: woolly cupgrass; experiment: Test C pre-/postemergence test; type: in vivo, Eriochloa villosa
How it was run: (§3)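 Test chemicals were formulated with surfactant in a non-phytotoxic solvent and sprayed both on freshly planted seeds (preemergence) and on 1- to 4-leaf plants of 2–18 cm (postemergence). Flooded-paddy pots received compound directly into 3 cm of standing water, maintained for the test.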

[6] = tested on: downy brome; experiment: Test C pre-/postemergence test; type: in vivo, Bromus tectorum
Source text: as §2

[7] = tested on: blackgrass; experiment: Test C pre-/postemergence test; type: in vivo, Alopecurus myosuroides
Source text: as §2

[8] = tested on: pigweed; experiment: Test C pre-/postemergence test; type: in vivo, Amaranthus retroflexus
How it was run: as §3

[9] = tested on: common ragweed; experiment: Test C pre-/postemergence test; type: in vivo, Ambrosia elation
How it was run: as §3

[10] = tested on: soybean; experiment: Test C pre-/postemergence test; type: in vivo, Glycine max
How it was run: as §3

[11] = tested on: Surinam grass; experiment: Test C pre-/postemergence test; type: in vivo, Brachiaria decumbens
How it was run: as §3

[12] = tested on: velvetleaf; experiment: Test C pre-/postemergence test; type: in vivo, Abutilon theophrasti
How it was run: as §3

[13] = tested on: giant foxtail; experiment: Test A pre-/postemergence greenhouse test; type: in vivo, Setaria faberi; details: for Plant response rating, Foxtail, Giant: 0 to 100 scale where 0 is no effect and 100 is complete control; for Foxtail, Giant plant response rating: 0 to 100 scale
How it was run: as §1

[14] = tested on: duck salad; experiment: Test C flooded paddy test; type: in vivo, Heteranthera limosa; details: Flood, 62 g ai/ha; scale 0 to 100 (0 no effect, 100 complete control)
How it was run: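 Flooded 3 cm over soil; compound into paddy water; depth kept constant. Greenhouse 13–15 d.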

[15] = tested on: barnyardgrass; experiment: Test A pre-/postemergence greenhouse test; type: in vivo, Echinochloa crus-galli; details: for Plant response rating, Barnyardgrass: 0 to 100 scale where 0 is no effect and 100 is complete control; for Barnyardgrass plant response rating: 0 to 100 scale
How it was run: as §1

[16] = Postemergence, 500 g ai/ha, 0 is no effect, 100 is complete control
[17] = Preemergence, 125 g ai/ha, 0 no effect, 100 complete control
[18] = 62 g ai/ha, Preemergence, scale 0 to 100
[19] = 125 g ai/ha, preemergence, scale 0 (no effect) to 100 (complete control)
[20] = Postemergence, 62 g ai/ha, scale 0 to 100, 0 no effect, 100 complete control
[21] = Postemergence, 125 g ai/ha, scale 0 to 100, 0 no effect, 100 complete control
[22] = Postemergence, 250 g ai/ha, scale 0 to 100, 0 no effect, 100 complete control
[23] = Preemergence, 31 g ai/ha, scale 0 to 100 (0 no effect, 100 complete control)
[24] = preemergence, 250 g ai/ha, scale 0 (no effect) to 100 (complete control)

What does the source list for `Cn1nc(C(F)(F)F)c(C[S+]([O-])c2ccc(F)c[n+]2[O-])c1OCC(F)(F)F` (stereo not drawn) [Compound 67]?
Plant response rating, Velvetleaf ([1]; Postemergence, 125 g ai/ha): 60; Velvetleaf plant response rating [1, 16]: 90; Velvetleaf plant response rating [1, 17]: 90; Plant response rating, Velvetleaf ([1]; Preemergence, 500 g ai/ha): 100; Plant response rating (0 to 100), Lambsquarters ([2]; 31 g ai/ha): 0; Plant response rating, Lambsquarters ([2]; 62 g ai/ha): 0; Plant response rating, Lambsquarters ([2]; 125 g ai/ha): 0; Plant response rating, Lambsquarters ([2]; 250 g ai/ha): 10; Plant response rating, Crabgrass, Large ([3]; Postemergence, 125 g ai/ha): 90; Crabgrass, Large plant response rating [3, 16]: 90; Crabgrass, Large plant response rating [3, 17]: 100; Plant response rating, Crabgrass, Large ([3]; Preemergence, 500 g ai/ha): 100; Foxtail, Green plant response rating [4, 18]: 100; Foxtail, Green plant response rating [4, 19]: 100; Plant response rating (0 to 100), Foxtail, Green ([4]; Postemergence, 31 g ai/ha): 0; Plant response rating, Foxtail, Green [4, 20]: 45; Plant response rating, Foxtail, Green [4, 21]: 60; Plant response rating, Foxtail, Green [4, 22]: 90; Plant response rating, Foxtail, Green [4, 23]: 100; Foxtail, Green plant response rating [4, 24]: 100; Cupgrass, Woolly plant response rating [5, 18]: 80; Cupgrass, Woolly plant response rating [5, 19]: 98; Plant response rating (0 to 100), Cupgrass, Woolly ([5]; Postemergence, 31 g ai/ha): 0; Plant response rating, Cupgrass, Woolly [5, 20]: 0; Plant response rating, Cupgrass, Woolly [5, 21]: 30; Plant response rating, Cupgrass, Woolly [5, 22]: 50; Plant response rating, Cupgrass, Woolly [5, 23]: 70; Cupgrass, Woolly plant response rating [5, 24]: 100; Bromegrass, Downy plant response rating [6, 18]: 100; Bromegrass, Downy plant response rating [6, 19]: 100; Plant response rating (0 to 100), Bromegrass, Downy ([6]; Postemergence, 31 g ai/ha): 0; Plant response rating, Bromegrass, Downy [6, 20]: 10; Plant response rating, Bromegrass, Downy [6, 21]: 40; Plant response rating, Bromegrass, Downy [6, 22]: 60; Plant response rating, Bromegrass, Downy [6, 23]: 100; Bromegrass, Downy plant response rating [6, 24]: 100; Blackgrass plant response rating [7, 18]: 100; Blackgrass plant response rating [7, 19]: 100; Plant response rating (0 to 100), Blackgrass ([7]; Postemergence, 31 g ai/ha): 30; Plant response rating, Blackgrass [7, 20]: 80; Plant response rating, Blackgrass [7, 21]: 90; Plant response rating, Blackgrass [7, 22]: 90; Plant response rating, Blackgrass [7, 23]: 90; Blackgrass plant response rating [7, 24]: 100; Pigweed plant response rating [8, 18]: 55; Pigweed plant response rating [8, 19]: 100; Plant response rating (0 to 100), Pigweed ([8]; Postemergence, 31 g ai/ha): 0; Plant response rating (0 to 100), Pigweed ([8]; Postemergence, 62 g ai/ha): 0; Plant response rating, Pigweed [8, 21]: 0; Plant response rating, Pigweed [8, 22]: 60; Plant response rating, Pigweed [8, 23]: 50; Pigweed plant response rating [8, 24]: 100; Ragweed plant response rating [9, 18]: 100; Ragweed plant response rating [9, 19]: 100; Plant response rating (0 to 100), Ragweed ([9]; Postemergence, 31 g ai/ha): 0; Plant response rating (0 to 100), Ragweed ([9]; Postemergence, 62 g ai/ha): 0; Plant response rating, Ragweed [9, 21]: 50; Plant response rating, Ragweed [9, 22]: 55; Plant response rating, Ragweed [9, 23]: 100; Ragweed plant response rating [9, 24]: 100; Soybean plant response rating [10, 18]: 80; Soybean plant response rating [10, 19]: 100; Plant response rating (0 to 100), Soybean ([10]; Postemergence, 31 g ai/ha): 0; Plant response rating (0 to 100), Soybean ([10]; Postemergence, 62 g ai/ha): 40; Plant response rating, Soybean [10, 21]: 50; Plant response rating, Soybean [10, 22]: 80; Plant response rating, Soybean [10, 23]: 0; Soybean plant response rating [10, 24]: 100; Surinam Grass plant response rating [11, 18]: 100; Surinam Grass plant response rating [11, 19]: 100; Plant response rating (0 to 100), Surinam Grass ([11]; Postemergence, 31 g ai/ha): 0; Plant response rating (0 to 100), Surinam Grass ([11]; Postemergence, 62 g ai/ha): 0; Plant response rating, Surinam Grass [11, 21]: 30; Plant response rating, Surinam Grass [11, 22]: 45; Plant response rating, Surinam Grass [11, 23]: 85; Surinam Grass plant response rating [11, 24]: 100; Velvetleaf plant response rating [12, 18]: 85; Velvetleaf plant response rating [12, 19]: 100; Plant response rating (0 to 100), Velvetleaf ([12]; Postemergence, 31 g ai/ha): 0; Plant response rating (0 to 100), Velvetleaf ([12]; Postemergence, 62 g ai/ha): 0; Plant response rating, Velvetleaf [12, 21]: 30; Plant response rating, Velvetleaf [12, 22]: 35; Plant response rating, Velvetleaf [12, 23]: 75; Velvetleaf plant response rating [12, 24]: 100; Plant response rating, Foxtail, Giant ([13]; Postemergence, 125 g ai/ha): 90; Foxtail, Giant plant response rating [13, 16]: 100; Foxtail, Giant plant response rating [13, 17]: 100; Plant response rating, Foxtail, Giant ([13]; Preemergence, 500 g ai/ha): 100; Plant response rating, Ducksalad [14]: 100; Plant response rating, Barnyardgrass ([15]; Postemergence, 125 g ai/ha): 90; Barnyardgrass plant response rating [15, 16]: 90; Barnyardgrass plant response rating [15, 17]: 90; Plant response rating, Barnyardgrass ([15]; Preemergence, 500 g ai/ha): 100
